In BindingDB's records for PubMed 9223586 (Georgetown University, 1997):

Target: Nicotinic acetylcholine receptor (Rattus leucopus, UniProt Q62594)
Sequence (Q62594 whole entry): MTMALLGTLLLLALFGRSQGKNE

Question: For `COc1cc2c3cc1Oc1cc(ccc1O)CC1c4c(cc(OC)c(O)c4Oc4ccc(cc4)CC3[N+](C)(C)CC2)CC[N+]1(C)C` (stereo unspecified) [CAS_8063-06-7], which Ki is on record?
Answer: 3.79 µM
